According to patent publication US20250179047A1, “5-[7-(3,4-DIHYDRO-1H-ISOQUINOLINE-2-CARBONYL)-1,2,3,4 TETRAHYDROISOQUINOLIN-6-YL]-1H-PYRROLE-3-CARBOXAMIDE DERIVATIVES, PHARMACEUTICAL COMPOSITIONS CONTAINING THEM AND THEIR USES AS PRO-APOPTOTIC AGENTS” (LES LABORATOIRES SERVIER, priority 2022, published 2025):

Columns and labels:
[1] = system: KMS-12-PE Bcl-2 G101V; assay: In vitro cytotoxicity CellTiter-Glo 48 h, KMS-12-PE Bcl-2 G101V; assay type: cell-based; details: for Ratio (G101V/WT): C50 KMS-12-PE Bcl-2 G101V over C50 KMS-12-PE Bcl-2 WT; for IC50: 48 h, CellTiter-Glo, C50 = concentration needed to reach 50% of the cellular viability
Description: KMS-12-PE (ACC 606) were purchased from the Leibniz-Institute DSMZ (Braunschweig, Germany) and were grown at 37° C. in a humidified atmosphere with […] in media recommended by the suppliers. Lentiviral particles containing Bcl-2 wild type (also named “Bcl2 WT”) and Bcl-2 mutated on G101V (also named “Bcl2 G101V”) were cloned into pcLV-CMV-DEST-IRES-TagRFP. Lentiviral particles (1×106) were mixed with Polybrene at 8 µg/ml and transduced by spinoculation for 1 h at 32° C. and incubated overnight. After 8 days, TagRFP positive-cells were sorted by FACS. BCL2 expression was monitored by immunoblotting using anti-Flag and anti-BCL2 antibodies.
Cellular viability was monitored with the cell viability assay (CellTiter-Glo®) on KMS-12-PE WT and G101V cell lines. The CellTiter-Glo® (CTG) Luminescent Cell Viability Assay (from Promega) is a homogeneous method to determine the number of viable cells in culture based on quantitation of the ATP present, which signals the presence of metabolically active cells.
Dose response of compounds are performed with 10 mM stock solutions (DMSO), 11-points curve, in a 384-well compound plate. The assay plate is prepared by stamping 40 nL from compound dilution plate of all different concentrations (e.g. 10 mM to have final […] assay test) into a cell culture microplate, using Echo acoustic liquid handling (Labcyte, Beckman). 40 μl of cell solution is added and cells are incubated with compounds for 48 h at 37° C., 5% CO2. CTG was added to the cells (according to the manufacturer instructions) and luminescence intensity was recorded using the Pherastar plate reader (BMG).
This assay provides in vitro cellular potency of the tested Bcl-2 inhibitors, measuring the C50, defined as the concentration needed to reach 50% of the cellular viability.

[2] = system: KMS-12-PE Bcl-2 WT; assay: In vitro cytotoxicity CellTiter-Glo 48 h, KMS-12-PE Bcl-2 WT; assay type: cell-based; details: C50 = concentration needed to reach 50% of the cellular viability
Procedure, shortened: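 Transduce KMS-12-PE with Bcl-2 WT or G101V lentivirus, then FACS-sort RFP-positive cells. Add compounds in an 11-point dilution series and incubate 48 h at 37 °C. Measure ATP-based luminescence with CellTiter-Glo and derive C50 (50% viability).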

[3] = target: BCLXL WT (Homo sapiens (Human), UniProt Q07817); assay: TR-FRET competitive binding assay, BCLXL WT; details: for Ki: BCLXL WT, Ki determined from IC50, read-out: TR_FRET EKI BclxL; for TR_FRET EKI BCLxL/WT selectivty ratio: ratio Ki BCLxL / Ki BCL2 WT
Chain of BCLXL WT (Q07817 other isoform, or with tags, fused parts or gaps): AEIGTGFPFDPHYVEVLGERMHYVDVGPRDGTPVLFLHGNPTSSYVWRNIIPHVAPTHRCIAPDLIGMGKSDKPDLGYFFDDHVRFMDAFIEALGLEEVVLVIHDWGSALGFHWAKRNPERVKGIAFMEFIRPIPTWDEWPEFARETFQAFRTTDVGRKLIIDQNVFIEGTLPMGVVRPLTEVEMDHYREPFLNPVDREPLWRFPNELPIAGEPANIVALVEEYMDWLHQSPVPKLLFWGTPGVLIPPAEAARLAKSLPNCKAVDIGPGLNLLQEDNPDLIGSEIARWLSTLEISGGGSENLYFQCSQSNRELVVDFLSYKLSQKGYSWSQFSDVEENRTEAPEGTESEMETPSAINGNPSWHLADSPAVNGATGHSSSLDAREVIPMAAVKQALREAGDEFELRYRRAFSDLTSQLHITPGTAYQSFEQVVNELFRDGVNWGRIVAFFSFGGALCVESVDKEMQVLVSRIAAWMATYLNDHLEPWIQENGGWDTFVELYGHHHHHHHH
Procedure, shortened: (§1)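 Terbium-labelled N-terminal Halo-fusion BCL2 or BCLXL (E. coli), 0.5 nM, competed against fluorescein-labelled PUMA peptide (2 or 20 nM) for 2 h at 23° C in 50 mM Hepes pH 7.5, 150 mM NaCl, 5% DMSO. TR-FRET 520/495 nm ratio gave IC50 by four-parameter fit; Ki derived from IC50.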

[4] = target: BCL2 G101V (Homo sapiens, UniProt P10415, G101V); assay: TR-FRET competitive binding assay, BCL2 G101V; details: BCL2 G101V; Ki determined from IC50; read-out: TR_FRET EKI_Bcl2 G101V
Procedure, shortened: as §1

[5] = system: BCL2 G101V; assay: TR-FRET competitive binding assay, BCL2 G101V; parameters: species or system human; details: ratio Ki BCL2 G101V / Ki BCL2 WT
Procedure, shortened: as §1

[6] = target: BCL2 WT (Homo sapiens (Human), UniProt P10415); assay: TR-FRET competitive binding assay, BCL2 WT; details: Ki determined from IC50, read-out: TR_FRET EKI_Bcl2 WT
Procedure, shortened: as §1

[7] = target: BCL2 D103Y (Homo sapiens, UniProt P10415, D103Y); assay: TR-FRET competitive binding assay, BCL2 D103Y; details: Ki determined from IC50, read-out: TR_FRET EKI_Bcl2 D103Y
Procedure, shortened: as §1

| SMILES | Ki [3] | TR_FRET EKI BCLxL/WT selectivty ratio [3] | Ki [4] | TR_FRET EKI G101V/WT selectivty ratio [5] | Ki [6] | Ki [7] | Ratio (G101V/WT) [1] | IC50 ([1]; Homo sapiens, KMS-12-PE) | IC50 ([2]; Homo sapiens, KMS-12-PE) | IC50 [1] | IC50 [2] |
| --- | --- | --- | --- | --- | --- | --- | --- | --- | --- | --- | --- |
| Cc1c(N(C(=O)c2cc(-c3cc4c(cc3C(=O)N3Cc5ccccc5C[C@H]3C)CN(C(=O)Cc3ccc([C@H]5C[C@@H]5N5CCOCC5)cc3F)CC4)n(C)c2C)c2ccc(O)cc2)cc(C#N)n1C (single isomer, unassigned) [Example 70, N-(5-cyano-1,2-dimethyl-pyrrol-3-yl)-5-[2-[2-[2-fluoro-4-[(1S,2R) or (1R,2S)-2-morpholinocyclopropyl]phenyl]acetyl]-7-[(3R)-3-methyl-3,4-dihydro-1H-isoquinoline-2-carbonyl]-3,4-dihydro-1H-isoquinolin-6-yl]-N-(4-hydroxyphenyl)-1,2-dimethyl-pyrrole-3-carboxamide] | 2.3 nM | 20.9 | 0.9 nM | 8.4 | 0.11 nM | 0.29 nM | 8.32 | 0.0629 µM | 0.0076 µM | – | – |
| Cc1c(C(=O)N(c2ccc(O)cc2)c2cc(C#N)n(CC3CCOC3)c2C)cc(-c2cc3c(cc2C(=O)N2Cc4ccccc4C[C@H]2C)CN(C(=O)Cc2ccc(OCCN4CCOCC4)cc2F)CC3)n1C (single isomer, unassigned) [Example 84, N-[5-cyano-2-methyl-1-((3S or R)-tetrahydrofuran-3-ylmethyl)pyrrol-3-yl]-5-[2-[2-[2-fluoro-4-(2-morpholinoethoxy)phenyl]acetyl]-7-[(3R)-3-methyl-3,4-dihydro-1H-isoquinoline-2-carbonyl]-3,4-dihydro-1H-isoquinolin-6-yl]-N-(4-hydroxyphenyl)-1,2-dimethyl-pyrrole-3-carboxamide] | 1.8 nM | 11.3 | 1 nM | 5.9 | 0.16 nM | 0.43 nM | 4.83 | 0.0353 µM | 0.0073 µM | – | – |
| Cc1c(N(C(=O)c2cc(-c3cc4c(cc3C(=O)N3Cc5ccccc5C[C@H]3CN3CCCCC3)CN(C(=O)Cc3ccc(OCC(C)N5CCOCC5)cc3)CC4)n(C)c2C)c2ccc(O)cc2)cc(C#N)n1C (single isomer, unassigned) [Example 128, N-(5-cyano-1,2-dimethyl-1H-pyrrol-3-yl)-N-(4-hydroxyphenyl)-1,2-dimethyl-5-[2-(2-{4-[(2R or S)-2-(morpholin-4-yl)propoxy]phenyl}acetyl)-7-[(3S)-3-[(piperidin-1-yl)methyl]-1,2,3,4-tetrahydroisoquinoline-2-carbonyl]-1,2,3,4-tetrahydroisoquinolin-6-yl]-1H-pyrrole-3-carboxamide] | 5.4 nM | 93.1 | 0.4 nM | 6.9 | 0.06 nM | 0.21 nM | 5.95 | – | – | 0.0613 µM | 0.0103 µM |
| Cc1c(N(C(=O)c2cc(-c3cc4c(cc3C(=O)N3Cc5ccccc5C[C@H]3C)CN(C(=O)Cc3ccccc3C#N)CC4)n(C)c2C)c2ccc(O)cc2)cc(C#N)n1C [Example 12, N-(5-cyano-1,2-dimethyl-1H-pyrrol-3-yl)-5-{2-[2-(2-cyanophenyl)acetyl]-7-[(3R)-3-methyl-1,2,3,4-tetrahydroisoquinoline-2-carbonyl]-1,2,3,4-tetrahydroisoquinolin-6-yl}-N-(4-hydroxyphenyl)-1,2-dimethyl-1H-pyrrole-3-carboxamide] | – | – | 1.7 nM | 7.7 | 0.22 nM | 0.4 nM | 9.14 | 0.0676 µM | 0.0074 µM | – | – |

Further lines, with some results ahead:

| Ki [3] | TR_FRET EKI BCLxL/WT selectivty ratio [3] | Ki [4] | TR_FRET EKI G101V/WT selectivty ratio [5] | Ki [6] | Ki [7] | SMILES | Ratio (G101V/WT) [1] | IC50 ([1]; Homo sapiens, KMS-12-PE) | IC50 ([2]; Homo sapiens, KMS-12-PE) | IC50 [1] | IC50 [2] |
| --- | --- | --- | --- | --- | --- | --- | --- | --- | --- | --- | --- |
| 1.4 nM | 10.8 | 0.5 nM | 3.7 | 0.13 nM | 0.28 nM | Cc1c(N(C(=O)c2cc(-c3cc4c(cc3C(=O)N3Cc5ccccc5C[C@H]3C)CN(C(=O)Cc3ccc(OCCN5CCOC(C)C5)cc3F)CC4)n(C)c2C)c2ccc(O)cc2)cc(C#N)n1C (single isomer, unassigned) [Example 75, N-(5-cyano-1,2-dimethyl-1H-pyrrol-3-yl)-5-[2-(2-{2-fluoro-4-[2-((2S or R)-2-methylmorpholin-4-yl)ethoxy]phenyl}acetyl)-7-[(3R)-3-methyl-1,2,3,4-tetrahydroisoquinoline-2-carbonyl]-1,2,3,4-tetrahydroisoquinolin-6-yl]-N-(4-hydroxyphenyl)-1,2-dimethyl-1H-pyrrole-3-carboxamide] | 3.93 | 0.0147 µM | 0.0037 µM | – | – |
| 1.1 nM | 17.7 | 0.3 nM | 4.7 | 0.06 nM | 0.2 nM | Cc1c(N(C(=O)c2cc(-c3cc4c(cc3C(=O)N3Cc5ccccc5C[C@H]3CN3CCCCC3)CN(C(=O)Cc3ccc(OCC(C)N5CCOCC5)cc3F)CC4)n(C)c2C)c2ccc(O)cc2)cc(C#N)n1C (single isomer, unassigned) [Example 141, N-(5-cyano-1,2-dimethyl-1H-pyrrol-3-yl)-5-[2-(2-{2-fluoro-4-[(2R or S)-2-(morpholin-4-yl)propoxy]phenyl}acetyl)-7-[(3S)-3-[(piperidin-1-yl)methyl]-1,2,3,4-tetrahydroisoquinoline-2-carbonyl]-1,2,3,4-tetrahydroisoquinolin-6-yl]-N-(4-hydroxyphenyl)-1,2-dimethyl-1H-pyrrole-3-carboxamide] | 2.2379 | – | – | 0.019 µM | 0.0085 µM |
| 9.2 nM | 70.8 | 0.6 nM | 4.8 | 0.13 nM | 0.3 nM | Cc1c(C(=O)N(c2ccc(O)cc2)c2cc(C#N)n(C(F)F)c2C)cc(-c2cc3c(cc2C(=O)N2Cc4ccccc4C[C@H]2CN2CCCCC2)CN(C(=O)Cc2ccc(OCCN4CCOC(C)C4)cc2F)CC3)n1C (single isomer, unassigned) [Example 162, N-[5-cyano-1-(difluoromethyl)-2-methyl-pyrrol-3-yl]-5-[2-[2-[2-fluoro-4-[2-((2R or S)-2-methylmorpholin-4-yl)ethoxy]phenyl]acetyl]-7-[(3S)-3-(1-piperidylmethyl)-3,4-dihydro-1H-isoquinoline-2-carbonyl]-3,4-dihydro-1H-isoquinolin-6-yl]-N-(4-hydroxyphenyl)-1,2-dimethyl-pyrrole-3-carboxamide] | 5.0958 | 0.0319 µM | 0.0063 µM | – | – |
| 2.6 nM | 38.8 | 0.5 nM | 7.8 | 0.07 nM | 0.3 nM | Cc1c(N(C(=O)c2cc(-c3cc4c(cc3C(=O)N3Cc5ccccc5C[C@H]3CN3CCCCC3)CN(C(=O)Cc3ccc(OCCC5COCCO5)cc3F)CC4)n(C)c2C)c2ccc(O)cc2)cc(C#N)n1C (single isomer, unassigned) [Example 174, N-(5-cyano-1,2-dimethyl-pyrrol-3-yl)-5-[2-[2-[4-[2-((2S or R)-1,4-dioxan-2-yl)ethoxy]-2-fluoro-phenyl]acetyl]-7-[(3S)-3-(1-piperidylmethyl)-3,4-dihydro-1H-isoquinoline-2-carbonyl]-3,4-dihydro-1H-isoquinolin-6-yl]-N-(4-hydroxyphenyl)-1,2-dimethyl-pyrrole-3-carboxamide] | 5.6751 | 0.0248 µM | 0.0044 µM | – | – |
